Test results from patent US20240165097A1, “PHARMACEUTICAL COMPOSITION FOR THE TREATMENT OF ALZHEIMER'S DISEASE OR DEMENTIA” (Heptares Therapeutics Limited, priority 2021, published 2024).

System: patients with mild-to-moderate AD
Test: Example D: Cogstate neuropsychological test battery
Assay type: in vivo, human
Description: Exploratory PD effects of HTL0018318 were examined via both behavioural (Cogstate neuropsychological test battery [NTB]) tests of cognitive function and electrophysiological (electroencephalogram [EEG] and evoked response potentials [ERPs]) biomarkers. Further details of each biomarker/test and outcome variables are provided below. Twelve-item neuropsychiatric inventory (NPI-12) scores were used to evaluate neuropsychiatric symptoms.
Exploratory pharmacodynamic endpoints (Cogstate tests and EEG/evoked response potential [ERP] biomarkers) were evaluated at screening (practice sessions) and baseline visits, and on Day 28±1. While this study was not powered to detect PD effects of small to moderate ESs, the study sample size provided approximately 80% power to detect a large ES of 0.97 for these endpoints using a significance level of 0.10.
A Cogstate neuropsychological test battery (NTB; http://www.Cogstate.com/) was administered as a computerised test, with the following cognitive tasks included in the battery. The total duration of the battery was approximately 30-40 minutes: • Identification (IDN)—reaction time (attention) • International shopping list immediate recall (ISL) and international shopping list-delayed recall (ISRL)—number of words recalled (episodic memory/verbal learning) • One back test (ONB)—accuracy and reaction time (working memory/executive function) • Groton maze learning (GML; forward and reverse maze learning)—accuracy (executive function)
The IDN is a measure of choice reaction time. In this task, an event (ie, a card turning face-up) occurs in the centre of the computer screen, and the patient must decide “YES” or “NO” as to whether or not this event meets a predefined and unchanging criterion (is the colour of the card red?). For this test, the primary dependent measure of the study was mean of the log10 transformed reaction times for correct responses.
The ISL and ISRL are a computer controlled verbal learning/episodic memory test. In this test, patients are read a list of 12 words. Each word is a concrete noun and describes an item of food that is found commonly in the culture/society in which testing is occurring. The examiner tells the patients “I am going to read to you a list of items I want you to get from the supermarket/store/market/shop”. After the 12 words have been read, the patient tries to recall as many of the words as they can immediately (ie, ISL immediate recall). Once they can recall no more words, the same list is read a second time with the words in the same order, after the same instruction. The process of reading the list and waiting for responses occurs 3 times. At the completion of the computerised battery (and with a minimum 20-minute delay) the patient is asked to recall as many of the items as they can from the shopping list (ISL delayed recall; ie, ISRL). For both ISL and ISRL tests, the primary dependent measure was number of words recalled.
The ONB memory task is a valid measure of working memory. In this task, the patient is shown a single stimulus in the centre of the computer screen (ie, a card turns face-up). He or she must decide “YES” or “NO” as to whether or not the current card matches the card that was seen on the immediately previous trial. The software measures the speed and accuracy of each response. For this test, the primary dependent measure of the study was arcsine transformation of the proportion of correct responses (i.e. accuracy).
The modified GML evaluates short-term memory. The test begins with a chase task to allow the patient to become familiar with the task context. The patient is shown a 10×10 grid of tiles on a computer touch screen. The patient is instructed to chase a moving tile around the grid. Once the patient understands the rules, he or she can proceed onto the timed chase test, where the patient must chase the target for 30 seconds. For the GML, the patient is shown the same 10×10 grid of tiles on a computer touch screen. […]

For `CCOC(=O)N1C2CCC1CC(N1CCC3(CC1)CNC(=O)C3)C2` (stereo not shown) [HTL0018318, ethyl 3-(3-oxo-2,8-diazaspiro[4.5]dec-8-yl)-8-azabicyclo[3.2.1]octane-8-carboxylate], the “IDN attention (reaction time), ES” value (15 mg, Day 28) was 0.62, the “IDN attention (reaction time), LSM difference from placebo” value (15 mg, Day 28) was 0.11 and the “ISL composite (immediate and delayed recall), LSM difference from placebo” value (25 mg, Day 28) was 0.21. The “ISL composite, ES” value (25 mg, Day 28) was 0.48, the “ISL-delayed recall, ES” value (25 mg, Day 28) was 0.49 and the “ISL-delayed recall, LSM difference from placebo” value (25 mg, Day 28) was 0.65. The “ISL-immediate recall, ES” value (25 mg, Day 28) was 0.34, the “ISL-immediate recall, LSM difference from placebo” value (25 mg, Day 28) was 1.11 words and the “IDN attention (reaction time)” value (5 and 25 mg, Day 28) was “Non-significant, improvements”. For the same compound, the “ONB reaction time or accuracy, GML task (forward or reverse) performance” value (any HTL0018318 dose) was “no statistically significant differences”.
